Values joined by “and” are separate entries in the source; they are usually repeats but may differ in a detail not shown here. Equal values may be shown once. “Also recorded” adds a separate entry of the source.
Tests used:
[1] = test system: S(-)nicotine (10 μM)-evoked [^3 H]DA release from rat striatal slices; assay type: cell-based
Procedure: (§1) Biological Methods. Male Spragua-Dawley rats (150-200 g) were obtained from Harlan Laboratories (Indianapolis, Ind.) and were housed two per cage with free access to food and water in the Division of Lab Animal Resources at the College of Pharmacy at the University of Kentucky. Experimental protocols involving the animals were approved by the Institutional Animal Care and Use Committee at the University of Kentucky.
(§2) [^3 H]DA Release Assay. Rat striatal slices (500 μm thickness, 6-8 mg wet weight) were obtained as previously described (Dwoskin and Zahniser, 1986). Slices were incubated for 30 min in Krebs' buffer ([…]; 118 NaCl, 4.7 KCl, 1.2 MgCl2, 1.0 NaH2 PO4, 1.3 CaCl2, […], 11.1 glucose, 25 NaHCO3, 0.11 L-ascorbic acid nd 0.004 disodium EDTA; pH 7.4 and saturated with 95% O2 /5% CO2) in a metabolic shaker at 34°. Slices were rinsed with 15 ml of fresh buffer and incubated for an additional 30 min in fresh buffer containing 0.1 μM [^3 H]dopamine (6 slices/3 ml). Subsequently, slices were rinsed with 15 ml of fresh buffer and transferred to a glass superfusion chamber. Slices were superfused (1.0 ml/min) for 60 min with Krebs' buffer containing nomifensine (10 μm) and pargyline (10 μm) and maintained at 34° C., pH 7.4 with continual aeration (95% O2 /5% CO2). Two 5-min samples (5 ml) were collected to determine basal outflow of [^3 H]DA. N-Substituted nicotine analogues were added to the superfusion buffer after the collection of the second sample and remained in the buffer until 12 consecutive 5-min samples were collected. […] At the end of the experiment each slice was solubilized and the [^3 H] content of the tissue determined.
(§3) Radioactivity in the superfusate and tissue samples was determined by liquid scintillation spectroscopy. Fractional release for each superfusate sample was calculated by dividing the total tritium collected in each sample by the total tritium present in the tissue at the time of sample collection. Basal [^3 H]out flow was calculated from the average of the tritium collected in the two 5-min samples just before addition of the N-substituted nicotine analogue. The sums of the increase in collected tritium resulting from either exposure to the test compound or exposure to nicotine in the absence and presence of the test compound equaled total [^3 H]overflow. [^3 H]overflow was calculated by subtracting the [^3 H]outflow during an equivalent period of prestimulation from the values in samples collected during and after drug exposure. Inasmuch as the radiolabelled compounds were not separated and identified, the tritium collected in superfusate is referred to as either [^3 H]outflow or [^3 H]overflow, rather than as [^3 H]DA. [^3 H]Overflow primarily represents [^3 H]DA in the presence of nomifensine and pargyline in the superfusion buffer (Zumstein et al. 1981).
In these experiments, the striatal slices were superfused for 60 min with various concentrations of the analogues prior to nicotine (10 μM) exposure. Antagonist activity was evaluated by comparing the nicotine-evoked [^3 H]overflow in the absence and presence of the analogues. […] The relative order of potency of the classical and pyridine-N substituted nicotine analogues for inhibition of nicotine-evoked [^3 H]DA release from rat striatal slices is illustrated in FIG. 2 by a comparison of their IC50 values.
FIG. 2. IC50 values for N-substituted analogues of nicotine, nornicotine, and cotinine to inhibit nicotine-evoked [^3 H]DA release from rat striatal slices. Inhibition produced by the classical nicotinic inhibitors, mecamylamine (MEC) and DHBE was also determined. Slices were superfused with inhibitor for 60 min […] co-superfusion with 10 μM nicotine. Inhibition was determined by comparing [^3 H]DA release in the absence and presence of various concentrations of inhibitor. IC50 values were determined using the Logit-log plot (pseudo-Hill plot). […] IC50 for each animal was determined as the intercept of the linear regression.

[2] = test system: [^3 H]DA release from rat striatal slices; assay: [3H]DA release assay: compound-evoked (intrinsic agonist) release; assay type: cell-based; design: key to total [3H]overflow (effect on [3H]DA release): summed increase in fractional release (sample tritium / tissue tritium); conditions: for total [3H]overflow (effect on [3H]DA release): mean ± S.E.M.; for total [3H]overflow (effect on [3H]DA release) / effect on [3H]DA release / intrinsic agonist activity (in words): rat striatal slices
Procedure: as §1, §2, §3

[3] = Rattus norvegicus, read-out: evoked [3H]DA release relative to S(-)nicotine

`CCCC[n+]1cccc([C@@H]2CCCN2C)c1` [NnBNI, S-N-nbutyl nicotinium iodine] was tested, and the “nicotinic antagonist activity / inhibition of nicotine-evoked [3H]DA release (in words)” value [1] was “Significant antagonist activity; also recorded: significantly lower potency and efficacy; also recorded: preferred nicotinic receptor antagonist activity”, the “relative order of potency for inhibition of nicotine-evoked [3H]DA release (comparison of IC50 values)” value [1] was “NBNB=NPNI=NnNBI=NANI>NHENI” and the “total [3H]overflow (effect on [3H]DA release)” value ([2]; Table 3, 1 μM) was 0.00 ± 0.00. For the same molecule, the “total [3H]overflow (effect on [3H]DA release)” value ([2]; Table 3, 10 μM) was 0.01 ± 0.01 and the “total [3H]overflow (effect on [3H]DA release)” value ([2]; Table 3, 100 μM) was 0.01 ± 0.01.
`CN1CCC[C@H]1c1ccc[n+](Cc2ccccc2)c1` [NBNB, S-N-benzyl nicotinium bromide] was tested, and the “nicotinic antagonist activity / inhibition of nicotine-evoked [3H]DA release (in words)” value [1] was “Significant antagonist activity; also recorded: significantly lower potency and efficacy; also recorded: possessing antagonist activity; also recorded: preferred nicotinic receptor antagonist activity”, the “relative order of potency for inhibition of nicotine-evoked [3H]DA release (comparison of IC50 values)” value [1] was “NBNB=NPNI=NnNBI=NANI>NHENI” and the “total [3H]overflow during cosuperfusion with 10 μM nicotine” value (from here on “total [3H]overflow during cosuperfusion”) [1] was 1.50 ± 0.55 and 1.27 ± 0.35. For the same molecule, the “total [3H]overflow (effect on [3H]DA release)” value ([2]; Table 3, 1 μM) was 0.21 ± 0.12, the “total [3H]overflow (effect on [3H]DA release)” value ([2]; Table 3, 10 μM) was 0.28 ± 0.12 and the “total [3H]overflow (effect on [3H]DA release)” value ([2]; Table 3, 100 μM) was 6.04 ± 0.97. For the same molecule, the “effect on [3H]DA release / intrinsic agonist activity (in words)” value ([2]; 1-100 μM) was “evoked [^3 H]DA release and thus, possess intrinsic agonist activity at this concentration”.
With `CN1CCC[C@H]1c1ccc[n+](CCO)c1` [NHENI, S-N-hydroxyethyl nicotinium iodide] the “nicotinic antagonist activity / inhibition of nicotine-evoked [3H]DA release (in words)” value [1] was “Significant antagonist activity; also recorded: preferred nicotinic receptor antagonist activity”, the “relative order of potency for inhibition of nicotine-evoked [3H]DA release (comparison of IC50 values)” value [1] was “NHENI>>>(±)di-N-allyl nicotinium iodide (DNANI)” and the “total [3H]overflow (effect on [3H]DA release)” value ([2]; Table 3, 1 μM) was 0.00 ± 0.00. The “total [3H]overflow (effect on [3H]DA release)” value ([2]; Table 3, 10 μM) was 0.00 ± 0.00 and the “total [3H]overflow (effect on [3H]DA release)” value ([2]; Table 3, 100 μM) was 0.08 ± 0.04.
For `c1cncc([C@@H]2CCCN2)c1` (racemic) [(±)nornicotine, racemic nornicotine, reference compound], the Emax [2, 3] was roughly 80%, the Emax at 1 µM [2, 3] was 50% and the “total [3H]overflow (effect on [3H]DA release)” value ([2]; Table 2, 1 μM) was 1.40 ± 0.24. For the same molecule, the “total [3H]overflow (effect on [3H]DA release)” value ([2]; Table 2, 10 μM) was 2.60 ± 0.38, the “total [3H]overflow (effect on [3H]DA release)” value ([2]; Table 2, 100 μM) was 4.20 ± 0.34 and the “effect on [3H]DA release / intrinsic agonist activity (in words)” value ([2]; 1-100 μM as stated, listed as Racemic nornicotine) was “concentration-dependent increase in [^3 H]DA release”. For the same molecule, the “effect on [3H]DA release / intrinsic agonist activity (in words)” value ([2]; 1-100 μM as stated, listed as nornicotine) was “less potent in producing this effect”.
For `C=CCN1CCCC1c1ccc[n+](CC=C)c1` (racemic) [(±)DNANI, (±)di-N-allyl nicotinium iodide], the “nicotinic antagonist activity / inhibition of nicotine-evoked [3H]DA release (in words)” value [1] was “did not exhibit significant nicotinic antagonist activity over the concentration range tested; also recorded: relatively weak antagonist activity compared to the N-allyl nicotine analogue (NANI)”, the “relative order of potency for inhibition of nicotine-evoked [3H]DA release (comparison of IC50 values)” value [1] was “(±)di-N-allyl nicotinium iodide (DNANI)=(±)N-methyl nornicotinium iodide (NMNNI)=NMNI” and the “total [3H]overflow during cosuperfusion” value [1] was 2.58 ± 0.54 and 1.85 ± 0.25 and 1.66 ± 0.36. For the same molecule, the “total [3H]overflow (effect on [3H]DA release)” value ([2]; Table 3, 1 μM) was 0.02 ± 0.01, the “total [3H]overflow (effect on [3H]DA release)” value ([2]; Table 3, 10 μM) was 0.08 ± 0.04 and the “total [3H]overflow (effect on [3H]DA release)” value ([2]; Table 3, 100 μM) was 0.00 ± 0.00.
With `CNC1(C)C2CCC(C2)C1(C)C` (stereo not drawn) [MEC, mecamylamine, reference compound] the “nicotinic antagonist activity / inhibition of nicotine-evoked [3H]DA release (in words)” value [1] was “inhibited but did not completely block nicotine's effect”, the “relative order of potency for inhibition of nicotine-evoked [3H]DA release (comparison of IC50 values)” value [1] was “DHBE=MEC>>NBNB” and the “total [3H]overflow (effect on [3H]DA release)” value ([2]; Table 3, 1 μM) was 0.00 ± 0.00. The “total [3H]overflow (effect on [3H]DA release)” value ([2]; Table 3, 10 μM) was 0.00 ± 0.00, the “total [3H]overflow (effect on [3H]DA release)” value ([2]; Table 3, 100 μM) was 0.00 ± 0.00 and the “effect on [3H]DA release / intrinsic agonist activity (in words)” value ([2]; 1-100 μM) was “None of the compounds examined, including DHBE and mecamylmine, had any significant effect on [^3 H]DA release in the concentration range of 1-10 μM”.
With `C[n+]1cccc(C2CCCN2)c1` (racemic) [(±)NMNNI, (±)N-methyl nornicotinium iodide] the “nicotinic antagonist activity / inhibition of nicotine-evoked [3H]DA release (in words)” value [1] was “did not exhibit significant nicotinic antagonist activity over the concentration range tested”, the “relative order of potency for inhibition of nicotine-evoked [3H]DA release (comparison of IC50 values)” value [1] was “(±)di-N-allyl nicotinium iodide (DNANI)=(±)N-methyl nornicotinium iodide (NMNNI)=NMNI” and the “total [3H]overflow during cosuperfusion” value [1] was 2.22 ± 1.26 and 3.53 ± 0.85. The “total [3H]overflow (effect on [3H]DA release)” value ([2]; Table 3, 1 μM) was 0.17 ± 0.11, the “total [3H]overflow (effect on [3H]DA release)” value ([2]; Table 3, 10 μM) was 0.01 ± 0.01 and the “total [3H]overflow (effect on [3H]DA release)” value ([2]; Table 3, 100 μM) was 2.60 ± 0.38. The “effect on [3H]DA release / intrinsic agonist activity (in words)” value ([2]; 1-100 μM) was “evoked [^3 H]DA release and thus, possess intrinsic agonist activity at this concentration”.
In the case of `CN1C(=O)CC[C@H]1c1cccnc1` [S(-)cotinine, reference compound], the Emax [2, 3] is reported as 35%, the “total [3H]overflow (effect on [3H]DA release)” value ([2]; Table 2, 1 μM) is reported as 0 ± 0 and the “total [3H]overflow (effect on [3H]DA release)” value ([2]; Table 2, 10 μM) is reported as 1.14 ± 0.36. For the same molecule, the “total [3H]overflow (effect on [3H]DA release)” value ([2]; Table 2, 100 μM) was 2.06 ± 0.35, the “effect on [3H]DA release / intrinsic agonist activity (in words)” value ([2]; 1-100 μM as stated, listed as Cotinine) was “no effect at 1 μM” and the “effect on [3H]DA release / intrinsic agonist activity (in words)” value ([2]; 1-100 μM as stated, listed as S(-)Cotinine) was “little effect even at high concentrations in the DA release assay”.
For `CO[C@H]1CC=C2CCN3CCC4=C(CC(=O)OC4)[C@]23C1` [DHBE, dihydro-β-erythroidine, reference compound], the “nicotinic antagonist activity / inhibition of nicotine-evoked [3H]DA release (in words)” value [1] was “inhibited but did not completely block nicotine's effect”, the “relative order of potency for inhibition of nicotine-evoked [3H]DA release (comparison of IC50 values)” value [1] was “DHBE=MEC>>NBNB” and the “total [3H]overflow (effect on [3H]DA release)” value ([2]; Table 3, 1 μM) was 0.02 ± 0.02. The “total [3H]overflow (effect on [3H]DA release)” value ([2]; Table 3, 10 μM) was 0.36 ± 0.22, the “total [3H]overflow (effect on [3H]DA release)” value ([2]; Table 3, 100 μM) was 2.01 ± 0.28 and the “effect on [3H]DA release / intrinsic agonist activity (in words)” value ([2]; 1-100 μM) was “None of the compounds examined, including DHBE and mecamylmine, had any significant effect on [^3 H]DA release in the concentration range of 1-10 μM; also recorded: also evoked [^3 H]DA release; also recorded: evoked [^3 H]DA release at the highest concentration examined”.
For `CCC[n+]1cccc([C@@H]2CCCN2C)c1` [NPNI, S-N-propyl nicotinium iodide], the “nicotinic antagonist activity / inhibition of nicotine-evoked [3H]DA release (in words)” value [1] was “Significant antagonist activity; also recorded: significantly lower potency and efficacy; also recorded: preferred nicotinic receptor antagonist activity”, the “relative order of potency for inhibition of nicotine-evoked [3H]DA release (comparison of IC50 values)” value [1] was “NBNB=NPNI=NnNBI=NANI>NHENI” and the “total [3H]overflow (effect on [3H]DA release)” value ([2]; Table 3, 1 μM) was 0.06 ± 0.01. The “total [3H]overflow (effect on [3H]DA release)” value ([2]; Table 3, 10 μM) was 0.03 ± 0.03 and the “total [3H]overflow (effect on [3H]DA release)” value ([2]; Table 3, 100 μM) was 0.03 ± 0.03.
For `C[N+]1(C)CCC[C@H]1c1cccnc1` [PIPNMN, S-N'-methyl nicotinium iodide], the “nicotinic antagonist activity / inhibition of nicotine-evoked [3H]DA release (in words)” value [1] was “did not exhibit significant nicotinic antagonist activity over the concentration range tested”, the “relative order of potency for inhibition of nicotine-evoked [3H]DA release (comparison of IC50 values)” value [1] was “NMNI=S-N-methylcotininium iodide (NMCI)=S-N'-methyl nicotinium iodide (PIPNMN)” and the “total [3H]overflow during cosuperfusion” value [1] was 3.16 ± 1.46 and 2.98 ± 1.48 and 1.88 ± 0.77. The “total [3H]overflow (effect on [3H]DA release)” value ([2]; Table 3, 1 μM) was 0.03 ± 0.03, the “total [3H]overflow (effect on [3H]DA release)” value ([2]; Table 3, 10 μM) was 0.01 ± 0.01 and the “total [3H]overflow (effect on [3H]DA release)” value ([2]; Table 3, 100 μM) was 0.05 ± 0.02.

From US5691365A, “Nicotinic receptor antagonists in the treatment of neuropharmacological disorders” (University of Kentucky Research Foundation, priority 1995, dated 1997)
